The record followed here is patent US7053178B2, “Synthetic peptides and kits for diagnosis of anti-phospholipid syndrome” (Yeda Research Development Co., LTD, priority 1998, dated 2006).

Assay [1] deals with anti-β2GPI G-3 mAb. Put plainly: Cyto-ELISA: inhibition of G-3 mAb binding to HUVEC. Also noted: species or system human. To be noted: peptide concentration of 10 μM. The procedure:
FIGS. 2A–2C are graphs showing inhibition of the anti-β2GPI ILA-1, ILA-3 and G-3 mAbs binding to human umbilical vein endothelial cells (HUVEC) by competition assays using increasing concentrations of the inhibitory monomer peptides A, B and C, respectively, and of unrelated peptide D as control. The percent of inhibition was calculated as in FIG. 1 above. Each point represents mean±SD of three different experiments.
(f) Anti-β2GPI mAb binding to endothelial cells in the presence of the inhibitory peptides. Human umbilical vein endothelial cells (HUVEC) were isolated as previously described and cultured under standard conditions (Jaffe et al., 1973). Briefly, umbilical cords were treated with collagenase (0.2% from Clostridium histolyticum, Boehringer) for 20 min at 37° C., cells were cultured in medium 199 with 20% FCS, 10 μg/ml growth supplement, 100 μg/ml heparin and antibiotics (streptomycin, penicillin), and used at passages 1–2 for plating onto gelatin-coated 96-well plates. Cyto-ELISA was performed as detailed before (Jaffe et al., 1973). Briefly, mAbs at different concentrations were added to HUVEC confluent wells, previously coated with 10 μg/ml β2GPI for 2 hours and fixed with 0.1% glutaraldehyde. The bound mAb was detected by further 1-hour incubation with alkaline phosphatase-conjugated goat anti-human IgM. […]

For assay [2], the system named is anti-β2GPI G-3 mAb. Put plainly: U937 monocyte adhesion to HUVEC exposed to G-3 mAb. The class given is cell-based, human. The following applies: G-3 mAb preincubated with peptide, 15 μM peptide. The protocol: FIGS. 3A–3C are graphs showing inhibition of U937 monocyte cell adhesion to HUVEC upon exposure to anti-β2GPI ILA-1, ILA-3 and G-3 mAbs and increasing concentrations of the inhibitory monomer peptides A, B and C, respectively, and of unrelated peptide D as control. The percentage of inhibition of adhesion was calculated as follows: % inhibition of adhesion=CPM in the presence of anti-β2GPI mAb−CPM in the presence of anti-β2GPI mAb and the tested peptide/CPM in the presence of anti-β2GPI mAb×100 (CPM=counts/min). Each point represents mean±SD of three different experiments.
(g) Adherence of U937 monocyte cells to endothelial cells in the presence of anti-β2GPI mAbs and the inhibitory peptides. This assay was performed as previously described (Carvalho et al., 1996). Briefly, U937 cells (a monocyte/macrophage-like cell line) were pretreated with heat-aggregated gamma-globulin for 30 min at 37° C. […] Radioactivity associated with adherence was quantified by beta-scintillation spectroscopy. The results were expressed as percent of added U937 cells that adhered and are presented as the mean±SD from 3–5 replicate wells.
The adhesion of monocytes to endothelial cells (EC) is considered a marker of EC activation. The percentage of adhesion is expressed as the portion of added U937 monocyte cells adhering to the HUVEC (thus reflecting the percentage of HUVEC coverage by the monocytes). […]

Assay [3] concerns experimental APS induced by anti-β2GPI mAb G-3. Put plainly: Murine experimental APS induced by G-3 mAb. The class given is in vivo, BALB/c mice. To be noted: mice infused with G-3 mAb, peptide 40 μg/mouse daily 3 days, day 15. The procedure:
(i) Mice: Female BALB/c mice, aged 10–12 weeks, were purchased from Tel-Aviv University Animal House, Israel. The females were caged overnight with BALB/c males and examined for vaginal plug next morning. The presence of the plug was considered as day 0 of pregnancy in all the studied groups. (j) Induction of murine experimental APS. Mice were infused intravenously with 20 μg of each one of the anti-β2GPI ILA-1, ILA-3, and G-3 mAbs at day 0 (the day at which a vaginal plug was observed following mating) (Blank et al., 1991), 6 hours later the mice received daily 40 μg/mouse of the tested peptides during 3 days. The mice were bled and sacrificed on day 15 of pregnancy. Fetal resorptions, activated partial thromboplastin time and platelet counts (markers of the APS-equivalent in mice) were determined as described (Blank et al., 1991). Significant fetal loss, thrombocytopenia and prolonged activated thromboplastin time (aPTT) were induced in naive mice following passive intravenous administration of the three anti-β2GPI mAbs ILA-1, ILA-3 and G-3, as described in Materials and Methods, section (j). The clinical manifestations of the experimental APS were prevented by infusion of the specific peptide monomers A, B, C which were delivered to the mice with the corresponding pathogenic anti-β2GPI mAbs, as shown in Table 2. […] Similarly, mice which were preinfused with control IgM and received a cocktail of the peptide monomers (A+B+C), were not affected.

Where no end group is shown, it is not given here.

Consider CATLRVYKGG [Peptide C], for which the “inhibition of G-3 mAb binding to HUVEC” value in assay [1] stood at 92%. The “inhibition of adhesion of U937 to HUVEC” value in assay [2] came out at 92%. Further, in assay [3], the “% Fetal loss (Resorbed fetuses/Total fetuses)” value was determined as 7 ± 2%, the Platelet count turned out to be 1242 cells/mm^3 × 10^−3 and the “aPTT (activated partial thromboplastin time)” value came out at 31 ± 4 s. Moreover, the “aPTT (activated partial thromboplastin time)” value in assay [3] (listed as peptide C) was found to be 31 ± 4 s.
